Reference: US12540143B2, “Methods and compositions for targeted protein degradation” (Ranok Therapeutics (Hangzhou) Co. Ltd., priority 2019, dated 2026)
Read-outs that look alike come from different tables or passages of the source.

Test system: MV4-11 cells
Test: MV4-11 Cytotoxicity Assay
Format: cell-based, human
Settings: 72 hr, CCK-8, read-out: MV4-11 cytotoxicity

Compound | IC50 (Homo sapiens, MV4-11) | IC50
Cc1sc2c(c1C)C(c1ccc(Cl)cc1)=N[C@@H](CC(=O)N1CCC(CN3CCN(Cc4ccc(-n5c(O)nnc5-c5cc(C(C)C)c(O)cc5O)cc4F)CC3)CC1)c1nnc(C)n1-2 [Compound 17, (S)-2-(4-(4-chlorophenyl)-2,3,9-trimethyl-6H-thieno[3,2-f][1,2,4]triazolo[4,3-a][1,4]diazepin-6-yl)-1-(4-((4-(4-(3-(2,4-dihydroxy-5-isopropylphenyl)-5-hydroxy-4H-1,2,4-triazol-4-yl)-2-fluorobenzyl)piperazin-1-yl)methyl)piperidin-1-yl)ethan-1-one, trifluoroacetic acid] | < 100 nM | 
CC[C@@H](C)Nc1cc(C(=O)NC2C[C@H]3CC[C@H](C2)N3c2ccc(C(=O)c3ccc(CN4CCN(CC5CCN(C(=O)C[C@@H]6N=C(c7ccc(Cl)cc7)c7c(sc(C)c7C)-n7c(C)nnc76)CC5)CC4)cc3)cn2)c(C)cc1C(N)=O (stereo partly shown) [Compound 25] |  | 100 to 1000 nM
Cc1sc2c(c1C)C(c1ccc(Cl)cc1)=N[C@@H](CC(=O)NCc1ccc(-n3c(S)nnc3-c3cc(C(C)C)c(O)cc3O)cc1)c1nnc(C)n1-2 [Compound 28, (S)-2-(4-(4-chlorophenyl)-2,3,9-trimethyl-6H-thieno[3,2-f][1,2,4]triazolo[4,3-a][1,4]diazepin-6-yl)-N-(4-(3-(2,4-dihydroxy-5-isopropylphenyl)-5-mercapto-4H-1,2,4-triazol-4-yl)benzyl)acetamide] | 100 to 1000 nM | 
Cc1sc2c(c1C)C(c1ccc(Cl)cc1)=N[C@@H](CC(=O)N1CCN(C(=O)C3CCN(c4ccc(-n5c(O)nnc5-c5cc(C(C)C)c(O)cc5O)cc4)CC3)CC1)c1nnc(C)n1-2 [Compound 29, (S)-2-(4-(4-chlorophenyl)-2,3,9-trimethyl-6H-thieno[3,2-f][1,2,4]triazolo[4,3-a][1,4]diazepin-6-yl)-1-(4-(1-(4-(3-(2,4-dihydroxy-5-isopropylphenyl)-5-hydroxy-4H-1,2,4-triazol-4-yl)phenyl)piperidine-4-carbonyl)piperazin-1-yl)ethan-1-one] | 100 to 1000 nM | 
Cc1sc2c(c1C)C(c1ccc(Cl)cc1)=N[C@@H](CC(=O)NCCOc1ccc(-n3c(S)nnc3-c3cc(C(C)C)c(O)cc3O)cc1)c1nnc(C)n1-2 [Compound 32, (S)-2-(4-(4-chlorophenyl)-2,3,9-trimethyl-6H-thieno[3,2-f][1,2,4]triazolo[4,3-a][1,4]diazepin-6-yl)-N-(2-(4-(3-(2,4-dihydroxy-5-isopropylphenyl)-5-mercapto-4H-1,2,4-triazol-4-yl)phenoxy)ethyl)acetamide] | 100 to 1000 nM | 
Cc1sc2c(c1C)C(c1ccc(Cl)cc1)=N[C@@H](CC(=O)NCCOCCOc1ccc(-n3c(S)nnc3-c3cc(C(C)C)c(O)cc3O)cc1)c1nnc(C)n1-2 [Compound 33, (S)-2-(4-(4-chlorophenyl)-2,3,9-trimethyl-6H-thieno[3,2-f][1,2,4]triazolo[4,3-a][1,4]diazepin-6-yl)-N-(2-(2-(4-(3-(2,4-dihydroxy-5-isopropylphenyl)-5-mercapto-4H-1,2,4-triazol-4-yl)phenoxy)ethoxy)ethyl)acetamide] | 100 to 1000 nM | 
Cc1sc2c(c1C)C(c1ccc(Cl)cc1)=N[C@@H](CC(=O)NCCOCCOCCOc1ccc(-n3c(S)nnc3-c3cc(C(C)C)c(O)cc3O)cc1)c1nnc(C)n1-2 [Compound 34, (S)-2-(4-(4-chlorophenyl)-2,3,9-trimethyl-6H-thieno[3,2-f][1,2,4]triazolo[4,3-a][1,4]diazepin-6-yl)-N-(2-(2-(2-(4-(3-(2,4-dihydroxy-5-isopropylphenyl)-5-mercapto-4H-1,2,4-triazol-4-yl)phenoxy)ethoxy)ethoxy)ethyl)acetamide] | 100 to 1000 nM | 
